Tests used:
Assay type in all cases: cell-based
[1] = tested on: human dermal fibroblasts (hDF) introduced with reprogramming genes; experiment: Colony number of induced pluripotent stem cells by alkaline phosphatase (AP) staining; settings: for dedifferentiation induction, graph counting and quantifying the number of colonies / AP-stained colonies: 10 μM peptide, 10 days at 24-hr intervals, FIG. 1; for AP-stained colonies: compared with cells without peptide and control peptides C1 or C2; for AP staining clarity: group treated with peptide, reported with FIG. 2
Source text: In order to verify the dedifferentiation induction efficiency of each peptide, the DNAs of reprogramming genes Oct3/4, Sox2, c-Myc, Klf4, and Lin28 were introduced to human dermal fibroblasts (hDF) of 1.5×10^5/well on a 6-well coated with […] of vitronectin recombinant human protein (VTN-N) by an electroporation method. According to a known method, the reprogramming genes were divided into three groups and cloned into three different episomal vectors and expressed together with p53 shRNA(pCXLE-hOCT3/4-shp53, pCXLE-hSK, and pCXLE-hUL) to enhance the establishment efficiency of dedifferentiation of stem cells (Okita, K. et al., Nat. Methods. 8(5):409-12, 2011). The cells introduced with the reprogramming genes were cultured in an Eagle's minimal essential medium (EMEM, ATCC) and the medium was replaced at 24-hr intervals until cell confluency became 50%. When the confluency became 50%, 10 μM of a dedifferentiation induction-promoting peptide and a control peptide were treated, respectively, and the medium was replaced with Essential 8 Medium and the peptides were treated at the same time as the medium replacement every 24 hrs. The peptide was treated for 10 days at 24-hr intervals, and in order to verify dedifferentiation efficiency per peptide, alkaline phosphatase (AP), known as a marker of embryonic stem cells, was used. For AP staining, an alkaline phosphatase detection kit(Milipore) was used. The medium was removed, 4% paraformaldehyde was added to the cells and they were immobilized for 2 minutes, a Naphthol/Fast Red Violet staining agent was added in a well and reacted at room temperature in a dark space for 20 minutes or more, and then the staining agent was washed with Dulbecco's phosphate buffered saline (DPBS) and the number of stained colonies was verified with a microscope.

[2] = tested on: human dermal fibroblasts introduced with reprogramming genes; experiment: Mesenchymal-epithelial transition (MET) by THY1/EPCAM flow cytometry (FACS); settings: 10 days of peptide treatment; compared with control peptides C1 or C2; FIG. 3
Description: Using the same method as in Example 2-1, reprogramming genes were introduced into the cells by an electroporation method in human dermal fibroblasts and divided in a 6-well coated with Vitronectin. After 10 days of peptide treatment in which the cells were stabilized, the cells were collected in a 15 ml Falcon tube by using a scrapper and then centrifuged for 3 minutes at 1500 rpm. The cells were washed with a buffer (PBS) and then 1.5×10^5 cells were transferred to each tube by using cold PBS. THY1 (cat: sc-59398) and EPCAM (cat: ab20160) antibodies at a concentration of 10 μg/ml were diluted with a 3% BSA/PBS solution in the tube and reacted for 30 minutes at 4° C., and then centrifuged three times for 5 minutes at 1500 rpm. After washing with cold PBS, the cells were transferred to a round tube and analyzed by flow cytometry (FACS). Before measuring samples, a control reference value was fixed using THY1 for human dermal fibroblasts and EPCAM for a human mammary epithelial cell (HMEC).

[3] = tested on: human dermal fibroblasts introduced with reprogramming genes; experiment: Oct4 embryonic stem cell marker expression by immunofluorescence (IF); settings: 10 μM peptide for 10 days; compared with cells without peptide and control peptides C1 or C2; FIG. 2
Description: Using the same method as in Example 2-1, reprogramming genes were introduced into the cells by an electroporation method in human dermal fibroblasts and divided in a 6-well coated with vitronectin. Thereafter, expression levels of Oct4 as a marker of embryonic stem cells were compared with each other by using an immunofluorescence (IF) method. The cells treated with 10 μM of each peptide for 10 days were fixed with 4% paraformaldehyde for 10 minutes at room temperature, and then 0.5% Triton-X 100 was added and they were cultured for 15 minutes at room temperature to pass through a cell wall and to penetrate into nuclei in the cells, and blocked with a buffer PBS in which 3% bovine serum albumin (BSA) was dissolved for 30 minutes. An Oct4 primary antibody was diluted with a buffer PBS in which 1% BSA was dissolved at a ratio of 1:100 and reacted for 16 hrs at 4° C. and a secondary antibody bound with fluorescein isothiocyanate (FITC) was diluted at a ratio of 1:200 and reacted for 1 hr at room temperature. Finally, a dye (Hoechst 33342, blue) for staining nuclei was treated for 10 minutes at room temperature and washed with a buffer PBS, and colonies with the clearest fluorescent expression in the well were photographed with a confocal scanning microscope (IX 70, Olympus Co., Tokyo, Japan).

Sequence | dedifferentiation induction, graph counting and quantifying the number of colonies [1] | AP-stained colonies [1] | AP staining clarity [1] | change of mesenchymal shape of dermal fibroblasts to epithelial shape (THY1/EPCAM, FACS) [2] | Oct4 fluorescence expression (IF) [3]
GKCSTRGRKCMRRKK (Functional Peptide P2) [peptide P1 with the fifth cysteine of C terminal substituted with methionine] | more efficiently induced dedifferentiation | more colonies were stained | clearer | significantly changed to an epithelial shape | more fluorescence was expressed
GKCSTRGRKCCRRKK (Functional Peptide P1) [dedifferentiation induction-promoting functional peptide] | more efficiently induced dedifferentiation | more colonies were stained | clearer | significantly changed to an epithelial shape | more fluorescence was expressed
GKCSTRGRKMCRRKK [Peptide P3] | more efficiently induced dedifferentiation | more colonies were stained | clearer | significantly changed to an epithelial shape | more fluorescence was expressed

Source: patent US10066212B2, “Method for preparing induced pluripotent stem cells using synthetic peptide” (Seoul National University R&DB Foundation, priority 2015, dated 2018)
